# Publication PMC6368365, “Didehydro-Cortistatin A Inhibits HIV-1 by Specifically Binding to the Unstructured Basic Region of Tat” (mBio, 2019)
# Read-outs that look alike come from different tables or passages of the source.
# Tests used:
# NL4-3 strain = experiment: HIV-1 NL4-3 infection of HeLa-CD4-LTR-LacZ reporter cells, LacZ measured 72 h later; type: cell-based; details: Human immunodeficiency virus 1, NL43
# Source text: To understand the structure-function relationship of the dCA molecule with respect to our structural model, we synthesized and characterized the ability of 11 analogs of dCA to inhibit HIV infection (Table 2). […] We used HeLa-CD4 cells stably expressing the HIV-1 5′ LTR driving β-galactosidase production (HeLa-CD4-LTR-LacZ cells) as a reporter for the infection with isolate NL4-3. Table 2 summarizes the IC50, 50% cytotoxic concentration (CC50), and therapeutic index (TI) for each compound. The loss of dCA activity was directly associated with the positioning and the chemical environment of the azote on the F ring and the presence of oxygen in ring B. Moreover, the E-F “skeleton angle” and the distance between the A-B-C-D and F rings affected the activity by more than 50-fold (analogs 7 and 10).
# The activity of Tat in HeLa-CD4-LTR-Luc and OM10.1 cells was verified by a transactivation assay as described in reference. In HeLa-CD4-LTR-LacZ cells, the assay was performed as described in reference. A detailed protocol is provided in Text S1.
# Transactivation assay. In HeLa-CD4-LTR-Luc cells and OM10.1 cells. The activity of Tat was verified by a transactivation assay as previously reported (13). Briefly, HeLa-CD4-LTR-Luc cells and OM10.1 were plated at 1×10^5 and 8x10^5 cells per well of a 6-well plate respectively. The following day, recombinant Tat protein was added to the cells in culture media without serum and in the presence of 100 μM of Chloroquine. Five hours later, serum was added at 5 % to the culture media. Cells were lysed 24 hrs later, protein concentration determined by Bradford assay and luciferase activity was measured for HeLa-CD4-LTR-Luc cells. Results corresponding to luciferase activity per protein concentration of each sample are shown as relative light unit (RLU). As for the OM10.1 cells, RNA was extracted using the RNA extraction kit (Qiagen) and DNA contamination was removed using Turbo-DNAse kit (Ambion). First-strand cDNA was synthesized using SuperscriptIII^TM first-strand cDNA kit (Invitrogen) and random hexamers as first-strand primers. qRT-PCR was performed with an aliquot of cDNA as template, using LightCycler? 480 SYBR Green I Master in a 20 µL reaction according to the manufacturer’s instructions. The mRNAs from each sample were used as negative control. Primer sequences for GAPDH (13) and all viral mRNAs as previously described (59). In HeLa-CD4-LTR-LacZ cells. It was performed as previously described (10). Briefly, cells were plated at 1×10^4 cells per well of a 96-well plate. Twenty-four hrs later HIV-1 NL4-3 strain was added in the presence of testing compound or DMSO. Seventy-two hrs post infection, cells were disrupted in lysis buffer (60 mM Na2HPO4, 40 mM NaH2PO4, 10 mM KCl, 10 mM MgSO4, 2.5 mM EDTA, 50 mM ß-mercaptoethanol, 0.125 % Nonidet P-40) and a quantitative chlorophenol red-ß-D-galactopyranoside (CPRG)-based (Boehringer Mannheim) assay was performed. The cell extracts were incubated in a reaction buffer (0.9 M phosphate buffer [pH 7.4], 9 mM MgCl2, 11 mM ß-mercaptoethanol, 7 mM CPRG) until a red color developed and measured with an LP400 (Becton Dickinson) plate reader at 572 nm.
# HIV = system: HIV; set-up: method as in PMID 29045830; details: dCA added to ART-suppressed mice; cited from earlier work
compound,measurement,setting,value
"CN(C)C1CC23CCC4(O2)C(=CCC2(C)C(c5ccc6ccncc6c5)=CCC24)C=C3C(O)C1O (stereo not drawn) [dCA, didehydro-cortistatin A]",IC50,"NL4-3 strain; HeLa-CD4-LTR-LacZ cells infected with NL4-3, LacZ at 72 h, mean ± SD, n = 2 to 3, read-out: IC50",600 ± 300 pM
same,IC50,"NL4-3 strain; span of Table 2 and earlier value, read-out: dCA inhibitory activity in cell-based assays",600 to 2000 pM
same,in vivo efficacy,HIV,systemically reduced viral mRNA in tissues and significantly delayed and reduced viral rebound levels upon treatment interruption
